Test results reported in the NIST ThermoML archive (doi:10.1016/j.fluid.2013.07.060).
“And” between values parts separate entries of the source, which are not always exact repeats. Equal values may be shown once. Numbers after ± are expanded uncertainties.

What was measured:
[1] = 101.33 kPa, Liquid, Capillary tube (Ostwald / Ubbelohde) method
[2] = xn = mol fraction of the nth substance listed; details: 101 kPa, Liquid; for viscosity: Capillary tube (Ostwald / Ubbelohde) method; for mass density: Vibrating tube method

For `CCCCCC` [hexane], the viscosity ([1]; 298.2 K) was 0.2937 ± 0.0065 mPa·s, the viscosity ([1]; 303.16 K) was 0.2798 ± 0.0062 mPa·s and the viscosity ([1]; 308.13 K) was 0.2669 ± 0.0059 mPa·s.
`CCCCCC` [hexane] + FC(F)(F)C(F)(F)C(F)(F)C(F)(F)C(F)(F)C(F)(F)F showed a viscosity ([2]; 298 K, x2 = 0) of 0.294 ± 0.006 mPa·s, a mass density ([2]; 298 K, x2 = 0) of 655 ± 1 kg/m3 and a viscosity ([2]; 303 K, x2 = 0) of 0.28 ± 0.006 mPa·s. For the same compound, the viscosity ([2]; 308 K, x2 = 0) was 0.267 ± 0.006 mPa·s.
For `FC(F)(F)C(F)(F)C(F)(F)C(F)(F)C(F)(F)C(F)(F)F` [perfluorohexane] + CCCCCC, the viscosity ([2]; 298 K, x1 = 0.243) was 0.341 ± 0.008 mPa·s, the viscosity ([2]; 298 K, x1 = 0.5) was 0.408 ± 0.009 mPa·s and 0.407 ± 0.009 mPa·s and the viscosity ([2]; 298 K, x1 = 0.705) was 0.458 ± 0.01 mPa·s. The viscosity ([2]; 298 K, x1 = 0.727) was 0.468 ± 0.01 mPa·s, the viscosity ([2]; 298 K, x1 = 0.902) was 0.556 ± 0.012 mPa·s and the viscosity ([2]; 298 K, x1 = 1) was 0.635 ± 0.014 mPa·s. The mass density ([2]; 298 K, x1 = 0.25) was 956 ± 1 kg/m3, the mass density ([2]; 298 K, x1 = 0.5) was 1207 ± 1 kg/m3 and the mass density ([2]; 298 K, x1 = 0.75) was 1457 ± 1 kg/m3. For the same compound, the mass density ([2]; 298 K, x1 = 1) was 1672 ± 1 kg/m3, the viscosity ([2]; 303 K, x1 = 0.243) was 0.319 ± 0.007 mPa·s and the viscosity ([2]; 303 K, x1 = 0.5) was 0.375 ± 0.008 mPa·s. For the same compound, the viscosity ([2]; 303 K, x1 = 0.705) was 0.428 ± 0.009 mPa·s, the viscosity ([2]; 303 K, x1 = 0.727) was 0.438 ± 0.01 mPa·s and the viscosity ([2]; 303 K, x1 = 0.902) was 0.52 ± 0.011 mPa·s. The viscosity ([2]; 303 K, x1 = 1) was 0.589 ± 0.013 mPa·s, the viscosity ([2]; 308 K, x1 = 0.243) was 0.299 ± 0.007 mPa·s and the viscosity ([2]; 308 K, x1 = 0.5) was 0.35 ± 0.008 mPa·s and 0.352 ± 0.008 mPa·s. For the same compound, the viscosity ([2]; 308 K, x1 = 0.705) was 0.401 ± 0.009 mPa·s, the viscosity ([2]; 308 K, x1 = 0.727) was 0.41 ± 0.009 mPa·s and the viscosity ([2]; 308 K, x1 = 0.902) was 0.483 ± 0.01 mPa·s. For the same compound, the viscosity ([2]; 308 K, x1 = 1) was 0.548 ± 0.012 mPa·s.
